ChEMBL document CHEMBL1255205, “Validated predictive QSAR modeling of N-aryl-oxazolidinone-5-carboxamides for anti-HIV protease activity” (Bioorg Med Chem Lett, 2010)

Molecular target: Protease (Human immunodeficiency virus 1, UniProt Q9YQ12)
Assay: Inhibition of HIV1 protease

Protease, sequence (Q9YQ12 whole entry): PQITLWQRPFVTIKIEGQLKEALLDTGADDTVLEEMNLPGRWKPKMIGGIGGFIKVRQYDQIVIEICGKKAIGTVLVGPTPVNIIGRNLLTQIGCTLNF

Compound | Ki
CC(=O)NC(C(=O)N[C@@H](Cc1ccccc1)CC(O)[C@H](Cc1ccccc1)NC(=O)[C@@H]1CN(c2cccc(C(F)(F)F)c2)C(=O)O1)C(C)C (stereo partly drawn) | 2.62 nM
COC(=O)NC(C(=O)N[C@@H](Cc1ccccc1)C(O)CN(CC(C)C)NC(=O)C1CN(c2ccccc2)C(=O)O1)C(C)(C)C (stereo partly drawn) | 10.6 nM
CC(=O)NC(C(=O)N[C@@H](Cc1ccccc1)CC(O)[C@H](Cc1ccccc1)NC(=O)[C@@H]1CN(c2ccc(F)c(F)c2)C(=O)O1)C(C)C (stereo partly drawn) | 2.13 nM
COC(=O)NC(C(=O)NN(CC(C)C)CC(O)[C@H](Cc1ccccc1)NC(=O)[C@@H]1CN(c2ccccc2)C(=O)O1)C(C)(C)C (stereo partly drawn) | 7 nM
Cc1cccc(C)c1OCC(=O)N[C@@H](Cc1ccccc1)CC(O)[C@H](Cc1ccccc1)NC(=O)[C@@H]1CN(c2ccccc2)C(=O)O1 (stereo partly drawn) | 8.05 nM
CC(=O)c1ccc(N2C[C@@H](C(=O)N[C@@H](Cc3ccccc3)C(O)C[C@H](Cc3ccccc3)NC(=O)COc3c(C)cccc3C)OC2=O)cc1 (stereo partly drawn) | 39.9 nM
O=C(N[C@@H](Cc1ccccc1)C(O)C[C@H](Cc1ccccc1)NC(=O)[C@@H]1CN(c2cccc(C(F)(F)F)c2)C(=O)O1)OCc1ccccn1 (stereo partly drawn) | 41.1 nM
Cc1cccc(C)c1OCC(=O)N[C@@H](Cc1ccccc1)C(O)C[C@H](Cc1ccccc1)NC(=O)[C@@H]1CN(c2ccccc2)C(=O)O1 (stereo partly drawn) | 4730 nM
Cc1cccc(C)c1OCC(=O)N[C@@H](Cc1ccccc1)C(O)C[C@H](Cc1ccccc1)NC(=O)[C@@H]1CN(c2cccc(C(F)(F)F)c2)C(=O)O1 (stereo partly drawn) | 21.6 nM
O=C(Cc1ccc2c(c1)OCO2)N[C@H](CC[C@H](Cc1ccccc1)NC(=O)[C@@H]1CN(c2ccccc2)C(=O)O1)Cc1ccccc1 | 657 nM
COC(=O)NC(C(=O)N[C@@H](Cc1ccccc1)CC(O)[C@H](Cc1ccccc1)NC(=O)[C@@H]1CN(c2ccccc2)C(=O)O1)C(C)(C)C (stereo partly drawn) | 3.51 nM
CC(=O)c1cccc(N2C[C@@H](C(=O)N[C@@H](Cc3ccccc3)C(O)C[C@H](Cc3ccccc3)NC(=O)COc3c(C)cccc3C)OC2=O)c1 (stereo partly drawn) | 35.1 nM
CC(=O)c1cccc(N2CC(C(=O)NN(Cc3ccc(-c4ccccn4)cc3)CC(O)[C@H](Cc3ccccc3)NC(=O)[C@@H]3CN(c4cccc(C(C)=O)c4)C(=O)O3)OC2=O)c1 (stereo partly drawn) | 1090 nM
